Measurements published in US20240285808A1, “MOLECULAR PROBES FOR IN VIVO DETECTION OF ALDEHYDES” (The General Hospital Corporation, priority 2021, published 2024).
“And” between values parts separate entries of the source, which are not always exact repeats. Equal values may be shown once. “Also recorded” adds a separate entry of the source.

How the values were obtained:
[1] = target: bovine serum albumin (BSA) (Bos taurus, UniProt P02769); test: Relaxivity measurements with BSA; format: binding; settings: 1.4 T, 37° C., BSA 10 mg/mL
Sequence of bovine serum albumin (BSA) (P02769 25-607): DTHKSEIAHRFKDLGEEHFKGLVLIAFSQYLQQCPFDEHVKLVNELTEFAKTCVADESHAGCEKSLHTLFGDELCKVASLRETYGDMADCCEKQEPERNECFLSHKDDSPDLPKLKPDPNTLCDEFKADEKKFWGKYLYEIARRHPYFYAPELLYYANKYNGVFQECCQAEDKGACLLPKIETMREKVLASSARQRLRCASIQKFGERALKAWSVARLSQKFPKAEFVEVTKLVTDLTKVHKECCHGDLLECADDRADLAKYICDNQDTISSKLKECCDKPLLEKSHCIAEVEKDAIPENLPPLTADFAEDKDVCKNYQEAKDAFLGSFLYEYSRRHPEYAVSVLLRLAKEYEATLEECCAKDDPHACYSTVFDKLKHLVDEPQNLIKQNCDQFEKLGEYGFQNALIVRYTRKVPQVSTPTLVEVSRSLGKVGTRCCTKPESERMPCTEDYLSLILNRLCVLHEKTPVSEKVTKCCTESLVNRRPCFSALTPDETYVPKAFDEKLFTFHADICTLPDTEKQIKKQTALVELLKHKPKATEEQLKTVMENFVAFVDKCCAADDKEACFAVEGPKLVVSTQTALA
Method: (§1) BSA-ALD (10 mg/mL) or BSA (10 mg/mL) were treated for 24 hours at 37° C. with the corresponding Gd or Mn complex at a range of concentrations (0.01-0.2 mM), with a total volume of 300 μL maintained for all samples. After 24 hours, an aliquot of the solution (50 μL) was used for longitudinal (T1) relaxation measurements, recorded using a Bruker mq60 Minispec at 1.41 T and 37° C. Longitudinal (T1) relaxation times were measured via an inversion recovery experiment using 10 inversions of duration ranging between 0.05×T1 and 10×T1. Solutions (concentration range: 0.1 mM-1.0 mM) in PBS were run in parallel. To measure the relaxivity of BSA-bound species, sodium cyanoborohydride (10 mg) was added to the solution to irreversibly bind the probe to the protein. After a further 2h incubation at 37° C., protein-bound and protein-free solutions were separated by ultrafiltration. Then 200 μL PBS was added to the residue to dissolve the protein. Longitudinal (T1) relaxation times for the bounded species were measured using a Bruker mq60 Minispec at 1.41 T and 37° C. After the measurement, concentration of corresponding metal ion (Gd/Mn) in the residue and filter were both determined using an Agilent 8800 ICP-MS system. Relaxivity (r1) was determined from the slope of a plot of 1/T1 vs metal concentration for 5 concentrations.

[2] = Reaction rates with butyraldehyde measured by HPLC-ICP-MS (Method B); format: physicochemical; settings: Method b: butyraldehyde 100 μM, probe 25 μM, pH 7.40
Method: Method B: Reaction Rates of Compounds with Butyraldehyde Measured by HPLC-ICP-MS
The reactions were conducted in pH 7.40 phosphate-buffered with butyraldehyde concentration of 100 μM and hydrazine probes at 25 μM. Concentrations of unreacted starting material and condensation products were determined at 10 min time intervals over 2 hours based on their relative integrations. The values were fit to a standard first order rate constant linear equation and the rate constant was extracted from the slope.
Reaction with Butyraldehyde Monitored by HPLC-ICP-MS
Reactions were conducted in pH 7.4 phosphate-buffered saline with butyraldehyde concentration of 100 μM and hydrazine probes at 25 μM. Concentrations of unreacted starting material and condensation products were determined based on their relative integrations at 12 min time intervals over 2 hours.

[3] = Biodistribution of manganese in healthy mice 60 minutes post-injection; format: in vivo, mouse; settings: 0.1 mmol/kg i.v.
Text: (§2) To meet these requirements, the probes Mn-12, Mn-13 and Mn-14 were designed based on the stable Mn-1,4-DO2A chelate. […] This combination of stability, turn-on relaxivity, and low uptake in healthy liver indicate that Mn-12 is quite promising as a novel probe for liver fibrogenesis detection.

[4] = Relaxivity measurements in PBS; format: physicochemical; settings: 1.4 T, 37° C.
Method: as §1

[5] = H2^17O transverse relaxivity vs temperature (inner-sphere water number q); format: physicochemical; settings: temperature dependence of H2^17O transverse relaxivity
Text: FIG. 24. […] The peak relaxivity is indicative of the number of inner-sphere water molecules (q).
as §2

[6] = test system: liver of CCl4 injured mice; format: in vivo, mouse; settings: CCl4 injured mice
Method: CCl4 Liver Fibrosis Model:
Male C57BL/6 mice (Charles River Laboratories, Wilmington, MA) were treated with carbon tetrachloride for 12 weeks (0.1 ml of 20% CCl4 in olive oil the first week, 30% the second week, and 40% from weeks 3-12) by oral gavage, 2-3 times per week. Control mice were fed vehicle (olive oil) only.
A total of 53 C57BL/6 mice were included to study CCl4 induced hepatic fibrosis: • A. CCl4 for 12 weeks (n=20). Each mouse was imaged with probe 1 and then imaged again 24 hours later with probe 2. Probe 1 and Probe 2 were randomly chosen from GdDOTA, GdCHyd, Mn-12, Gd-9 and Gd-10. • B. Vehicle treated control (n=20). Each mouse was imaged with probe 1 and then imaged again 24 hours later with probe 2. Probe 1 and Probe 2 were randomly chosen from GdDOTA, Mn-12, GdCHyd, Gd-9, Gd-10. • C. CCl4 for 12 weeks (n=3, another 3 pair-wise comparison have been done in group A). Each mouse was imaged with probe 1 and then imaged again 24 hours later with probe 2. […] Each mouse was imaged with probe 1 and then imaged again 24 hours later with probe 2. Probe 1 and Probe 2 were randomly choosing from Gd-9 and Gd-10. • E. CCl4 for 12 weeks (n=3). Each mouse was imaged with Gd-9. After 24 hours, the same mouse was first injected with 1000 μmol/kg of Yb-9 and then injected with 100 μmol/kg of Gd-9 15 min after the Yb-9 injection.
Animals were anesthetized with isoflurane (1-2%) and placed in a specially designed cradle with body temperature maintained at 37° C. The inhaled isoflurane level was adjusted to maintain a respiration rate of 60±5 breaths per minute. The tail vein was cannulated for intravenous (i.v.) delivery of the contrast agent while the animal was positioned in the scanner. Imaging was performed at 4.7 T using a small bore animal scanner with a custom-built volume coil. Mice were imaged with a dose of 100 μmol/kg from 30 mM stock solution of Gd or Mn complex.
For mice liver imaging, a series of baseline images (3D T1 weighted fast low angle shot magnetic resonance imaging (FLASH)) were first acquired (repetition time/echo time=15/2 ms; flip angle, 30°; field of view, 48×30 mm^2; matrix size, […]; slice thickness, 0.25 mm; acquisition time, 3 minutes 20 seconds), then a bolus of Gd or Mn complex was administered i.v. and imaging performed for a period of 45 min p.i. with the repetition acquisition of 3D T1 weighted FLASH sequences. Following the imaging session, animals were sacrificed (75 min p.i.) and liver tissue was subjected to histopathologic analysis.
For liver imaging analysis, a region of interest (ROI) was manually traced encompassing the liver parenchyma while avoiding major blood vessels. A second ROI was placed on the dorsal muscle visible in the same image slice to quantify the signal intensity in the muscle for comparison. Seven ROIs were placed in the field of view without any tissue (air) to measure the variation in background signal. More than 20 axial slices per mouse across the entire liver were analyzed in this fashion. […] Contrast to noise ratio (CNR) was calculated by measuring the difference in signal intensity (SI) between liver and muscle and normalizing to the standard deviation of the signal in the air, eq 21. ΔCNR was calculated by subtracting CNR measured prior to probe injection (CNRPre) from CNR measured after injection (CNRPost), eq 22. […]

[7] = target: T1, BSA-ALD (oxidized bovine serum albumin containing allysine aldehyde groups) (Bos taurus, UniProt P02769); test: Relaxivity measurements with BSA-Ald; format: binding
T1 construct: made in house; host or cells: no expression host: BSA oxidised chemically with sodium ascorbate, ferric chloride and H2O2, then desalted on PD-10
T1 sequence (P02769 25-607): as above
Method: Preparation of Allysine Containing Bovine Serum Albumin, BSA-ALD:
To a solution of bovine serum albumin (BSA) (100 mg) dissolved in phosphate buffered saline (4 mL, pH 7.4, 0.25 mM), sodium ascorbate (20 mg), ferric chloride (120 μL, 10 mM) and 20 μL H2O2 (30% w) were added. The reaction was stirred at 37° C. for 24 hours, and sodium ascorbate (20 mg) was added repeatedly every 8 hours. After the reaction, protein was purified using PD-10 Sephadex G25 desalting columns (GE Healthcare), eluted with PBS. Protein concentration was assessed using the ‘BCA Protein Assay Kit’ (Thermo Scientific). Protein carbonyl concentration was determined by ‘Protein Carbonyl Content Assay Kit’ (Sigmal-Aldrich).
Alternatively, preparation of BSA^Ald and binding of Gd^3+ probe to protein was carried out according to modified procedures. To a solution of bovine serum albumin (BSA) (100 mg) dissolved in phosphate buffered saline (4 mL, pH 7.4, 0.25 mM) was added sodium ascorbate (20 mg), ferric chloride (120 μL, 10 mM) and 20 μL H2O2 (30% w). The reaction was stirred at 37° C. for 24 h, and sodium ascorbate (20 mg) was added repeatedly every 8 h. After 24 h, the protein was purified using PD-10 Sephadex G25 desalting columns (GE Healthcare), eluted with PBS. Protein concentration was assessed using the ‘Micro BCA Protein Assay Kit’ (Thermo Scientific, 23235). Protein carbonyl concentration was determined by ‘Protein Carbonyl Content Assay Kit’ (Sigma-Aldrich, MAK094-1KT). […] The protein solutions were kept at a concentration of 20 mg/mL for further use.
as §1

[8] = Transmetalation experiment with Zn^2+ monitored by relaxivity; format: physicochemical; settings: 1 mM complex, 25 mM Zn^2+, 50 mM pH 6.0 MES buffer, 37° C., 1.4 T
[9] = test system: fibrotic lung tissue of bleomycin-injured mice; test: Biodistribution study for selectivity of allysine-reactive Gd probes (Gd:Eu ratio by ICP-MS); format: in vivo, mouse; settings: 30 minutes after injection, 100 nmol/g, Eu-DOTA co-injected, n = 5
Method: C57Bl/6 adult male mice at 8 weeks of age (Jackson Laboratories, Barr Harbor, ME) received a single intratracheal dose of bleomycin, 1 units/kg body weight (50 μL total volume) (Fresenius Kabi, Lake Zurich, Il) as previously described in Desogere, P., et al. Optimization of a Collagen-Targeted PET Probe for Molecular Imaging of Pulmonary Fibrosis. J Nuc Med 58, 1991-1996 (2017).
Imaging and Biodistribution Study for Selectivity of Allysine-Reactive Probes In Vivo:
Bleomycin-injured mice at 14 days after injury were sedated and then injected with Compound 19, Compound 20, Gd-CHyd (Akam, E. A., et al. Improving the reactivity of hydrazine-bearing MRI probes for in vivo imaging of lung fibrogenesis. Chemical Science 11, 224-231 (2020)) formulated to contain an equal concentration of Eu-DOTA as a non-binding control probe. […] Each sample was analyzed by ICP-MS for gadolinium and europium content, and the lungs were also assessed for hydroxyproline content. […] All animals were dosed via tail vein injection at 100 nmol/g body weight from 30 mM solutions of gadolinium probes with 30 mM Eu-DOTA as determined by ICP-MS. […] Animals were euthanized 90 min post injection and their organs and tissues were harvested and counted using a gamma counter. […] The animals were euthanized 90 min post injection and their organs and tissues were counted using a gamma counter. […]

[10] = Reaction rates with 2-formylpyridine measured by HPLC-ICP-MS (Method A); format: physicochemical; settings: Method a: 2-formylpyridine 1000 μM, probe 25 μM, pH 7.40 PBS
Method: Quantitative Measurement of Reaction Rates with Aldehydes: Method A: Reaction Rates of Compounds with 2-Formylpyridine Measured by HPLC-ICP-MS
Reactivity of aldehyde-binding probes were assessed in pH 7.40 phosphate-buffered saline under pseudo-first order conditions with 2-formylpyridine concentration of 1000 μM and probes at 25 μM. Concentrations of unreacted starting material and condensation products were determined at 12 min time intervals based on their relative integrations. The values were fit to a standard first order rate constant linear equation and the rate constant was extracted from the slope.

| Compound | r1, +BSA [1] | k (second order rate constant) [2] | Mn liver levels in healthy mice [3] | r1, PBS [4] | inner-sphere number of water molecule (q) [5] | liver enhancement ([6]; 45 min p.i.) | ΔCNR (liver to muscle) ([6]; 45 min post injection, 100 μmol/kg i.v., group mean) | turn-on in relaxivity upon binding to allysine (BSA-Ald bound vs unbound) [7] | r1, +BSA-Ald ([7]; 1.4 T, 37° C., BSA-Ald 10 mg/mL) | r1, Bound to BSA-Ald ([7]; 1.4 T, 37° C., protein-bound species after NaBH3CN and ultrafiltration) | kinetic inertness to Mn^2+ release [8] | Gd:Eu ratio, Left lung [9] | Gd:Eu ratio, Right lung [9] | k (second order rate constant) [10] |
| --- | --- | --- | --- | --- | --- | --- | --- | --- | --- | --- | --- | --- | --- | --- |
| NN1CCN(C(=O)CCCN2CCN(CCCC(=O)N3CCN(N)CC3)CCN(CC(=O)[O-])CCN(CC(=O)[O-])CC2)CC1.[Mn+2] [Mn-12] | 2.2 mM⁻¹ s⁻¹ | 4.5 M⁻¹ s⁻¹ | little accumulation in the healthy liver; also recorded: baseline Mn levels in liver | 1.6 mM⁻¹ s⁻¹ | 0.44 | strong signal enhancement | 1.5 ± 0.8 | 4 fold and ~5 fold | 4.5 mM⁻¹ s⁻¹ | 7.7 mM⁻¹ s⁻¹ | more inert to Mn^2+ release than Mn-1,4-DO2A; also recorded: increased kinetic stability of Mn-12 compared to unmodified Mn-1,4-DO2A |  |  |  |
| NOCC(=O)NCCN(CCNC(=O)CCC1C(=O)[O][Gd]23[O]C(=O)CN4CCN(CCN1CCN(CC4)CC(=O)[O]2)CC(=O)[O]3)CCNC(=O)CON (centres unmarked) [Compound 19] |  |  |  |  |  |  |  |  |  |  |  | 1.4 ± 0.1 | 1.3 ± 0.2 | 0.55 M⁻¹ s⁻¹ |
